The pA2 is a measure of antagonist potency on a negative log scale. A lower pA2 goes with lower antagonist potency.

Experiment [1] addresses T1, Adrenergic receptor alpha-1 (Rattus norvegicus, UniProt P15823+P23944+P43140).
T1 sequence (P15823 whole entry): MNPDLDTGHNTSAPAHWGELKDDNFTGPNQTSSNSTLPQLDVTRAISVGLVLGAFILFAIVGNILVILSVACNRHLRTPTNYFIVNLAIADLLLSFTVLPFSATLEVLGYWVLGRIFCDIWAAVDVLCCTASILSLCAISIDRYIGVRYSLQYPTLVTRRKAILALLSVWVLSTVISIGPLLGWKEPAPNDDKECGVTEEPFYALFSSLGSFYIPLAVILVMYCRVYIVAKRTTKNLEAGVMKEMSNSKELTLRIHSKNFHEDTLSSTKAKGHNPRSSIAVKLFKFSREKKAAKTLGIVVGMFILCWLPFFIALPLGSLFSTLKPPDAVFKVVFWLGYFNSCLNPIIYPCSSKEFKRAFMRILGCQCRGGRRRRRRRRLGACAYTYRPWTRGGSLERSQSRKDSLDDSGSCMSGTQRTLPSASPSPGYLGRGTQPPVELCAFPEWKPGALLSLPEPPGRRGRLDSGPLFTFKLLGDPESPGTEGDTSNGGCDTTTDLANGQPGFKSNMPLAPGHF
T1 sequence (P23944 whole entry): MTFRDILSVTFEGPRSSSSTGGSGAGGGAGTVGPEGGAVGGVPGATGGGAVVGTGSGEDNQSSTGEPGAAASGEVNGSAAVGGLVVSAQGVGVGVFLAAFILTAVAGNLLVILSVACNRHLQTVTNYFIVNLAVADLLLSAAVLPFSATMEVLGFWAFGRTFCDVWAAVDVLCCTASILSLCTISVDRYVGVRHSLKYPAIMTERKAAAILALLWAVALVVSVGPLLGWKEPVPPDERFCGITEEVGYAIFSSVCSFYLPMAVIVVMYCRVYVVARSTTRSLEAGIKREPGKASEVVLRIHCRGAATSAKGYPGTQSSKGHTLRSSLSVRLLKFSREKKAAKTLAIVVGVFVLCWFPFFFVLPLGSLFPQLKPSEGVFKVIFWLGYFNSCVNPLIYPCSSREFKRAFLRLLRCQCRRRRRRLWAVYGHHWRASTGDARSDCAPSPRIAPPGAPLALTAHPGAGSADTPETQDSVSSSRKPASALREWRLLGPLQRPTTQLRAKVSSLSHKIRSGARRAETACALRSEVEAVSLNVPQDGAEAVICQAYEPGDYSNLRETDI
T1 sequence (P43140 whole entry): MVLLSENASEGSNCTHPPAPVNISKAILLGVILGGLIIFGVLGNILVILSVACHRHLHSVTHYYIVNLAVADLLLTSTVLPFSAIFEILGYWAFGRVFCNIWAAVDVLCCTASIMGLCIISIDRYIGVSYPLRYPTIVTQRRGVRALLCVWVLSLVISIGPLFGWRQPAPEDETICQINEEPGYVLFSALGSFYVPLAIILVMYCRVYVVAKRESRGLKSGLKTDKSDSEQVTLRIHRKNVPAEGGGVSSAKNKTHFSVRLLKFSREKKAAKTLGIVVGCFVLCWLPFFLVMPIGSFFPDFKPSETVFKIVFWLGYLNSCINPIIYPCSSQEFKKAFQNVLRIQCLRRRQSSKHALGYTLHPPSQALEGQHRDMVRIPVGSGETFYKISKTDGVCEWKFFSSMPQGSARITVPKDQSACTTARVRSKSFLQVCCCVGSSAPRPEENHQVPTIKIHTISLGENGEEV
The experiment can be described thus: Antagonistic activity against alpha-1 adrenergic receptor in isolated rat anococcygeus muscle. The format is functional, tissue-based.

Experiment [2] concerns the target T2, Adrenergic receptor alpha-2 (Rattus norvegicus, UniProt P22086+P19328+P22909).
T2 sequence (P22086 whole entry): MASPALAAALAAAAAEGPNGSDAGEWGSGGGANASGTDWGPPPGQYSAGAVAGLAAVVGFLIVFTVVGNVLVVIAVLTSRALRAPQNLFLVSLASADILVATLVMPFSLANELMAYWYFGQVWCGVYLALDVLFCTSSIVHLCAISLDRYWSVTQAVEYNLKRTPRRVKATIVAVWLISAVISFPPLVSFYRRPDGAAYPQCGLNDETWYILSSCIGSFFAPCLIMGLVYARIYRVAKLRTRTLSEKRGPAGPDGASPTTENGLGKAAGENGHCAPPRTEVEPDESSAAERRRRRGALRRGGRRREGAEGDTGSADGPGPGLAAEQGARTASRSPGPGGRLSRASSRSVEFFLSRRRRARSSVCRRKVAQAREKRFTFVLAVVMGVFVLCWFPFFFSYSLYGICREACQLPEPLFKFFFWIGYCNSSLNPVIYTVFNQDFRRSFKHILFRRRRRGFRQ
T2 sequence (P19328 whole entry): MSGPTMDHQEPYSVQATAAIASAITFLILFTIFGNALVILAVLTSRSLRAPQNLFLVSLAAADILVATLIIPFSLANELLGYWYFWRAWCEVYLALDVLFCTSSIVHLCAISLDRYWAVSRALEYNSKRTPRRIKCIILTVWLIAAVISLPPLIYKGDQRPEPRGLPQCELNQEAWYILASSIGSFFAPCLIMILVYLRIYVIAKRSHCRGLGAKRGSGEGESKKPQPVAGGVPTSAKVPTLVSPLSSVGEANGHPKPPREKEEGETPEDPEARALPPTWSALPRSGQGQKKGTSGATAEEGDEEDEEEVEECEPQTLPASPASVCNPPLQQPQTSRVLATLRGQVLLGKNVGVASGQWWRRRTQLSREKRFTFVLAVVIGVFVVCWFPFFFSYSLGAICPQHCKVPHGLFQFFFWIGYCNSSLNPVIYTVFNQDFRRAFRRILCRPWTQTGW
T2 sequence (P22909 whole entry): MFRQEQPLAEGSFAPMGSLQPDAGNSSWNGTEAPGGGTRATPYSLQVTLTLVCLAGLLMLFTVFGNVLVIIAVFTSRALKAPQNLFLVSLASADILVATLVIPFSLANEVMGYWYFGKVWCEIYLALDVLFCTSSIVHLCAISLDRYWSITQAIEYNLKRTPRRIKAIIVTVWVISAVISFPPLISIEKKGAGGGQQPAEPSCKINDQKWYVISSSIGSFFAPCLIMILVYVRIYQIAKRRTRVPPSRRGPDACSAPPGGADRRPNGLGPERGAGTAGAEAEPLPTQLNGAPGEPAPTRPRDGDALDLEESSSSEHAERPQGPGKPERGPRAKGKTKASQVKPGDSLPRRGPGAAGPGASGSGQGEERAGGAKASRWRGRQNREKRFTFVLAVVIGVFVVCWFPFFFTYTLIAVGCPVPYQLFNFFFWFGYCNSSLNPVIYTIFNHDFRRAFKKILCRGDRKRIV
Briefly: Antagonistic activity against alpha-2 adrenergic receptor in rat vas deferens. The format is functional, tissue-based.

Each structure is given as a SMILES string. A value given as a limit tells only on which side of the number the result lay.

Take `CC(C)COC(=O)N(C)[C@@H]1CCN2CCc3ccccc3[C@@H]2C1`: the pA2 in experiment [1] turned out to be 7.
`CCS(=O)(=O)N(C)[C@@H]1CCN2CCc3ccccc3[C@@H]2C1`: the pA2 in experiment [2] was 7.7; in experiment [1] it was 6.17.
For `CN([C@@H]1CCN2CCc3ccccc3[C@@H]2C1)S(=O)(=O)c1ccsc1`, the pA2 in experiment [2] came out at 7.94; in experiment [1], 6.65.
For `CN([C@H]1CCN2CCc3ccccc3[C@H]2C1)S(C)(=O)=O`, the figures for the pA2 in experiment [2] and in experiment [1] were less than 5 and 5.3, respectively.
On to `CCN([C@@H]1CCN2CCc3ccccc3[C@@H]2C1)S(C)(=O)=O`, for which the pA2 in experiment [2] is reported as 7.39; in experiment [1], 6.61.
Taken in the same sequence, the figures for `Cc1ccccc1S(=O)(=O)N(C)[C@@H]1CCN2CCc3ccccc3[C@@H]2C1` were 7.87 and 6.27.
Taken in the same sequence, the figures for `CN(C)S(=O)(=O)N(C)[C@@H]1CCN2CCc3ccccc3[C@@H]2C1` were 7.4 and 5.95.
Regarding `CCCCCCCCCCCCS(=O)(=O)N(C)[C@@H]1CCN2CCc3ccccc3[C@@H]2C1`, in experiment [2], the pA2 is less than 5.
With `CC(C)CS(=O)(=O)N(C)[C@H]1CCN2CCc3ccccc3[C@H]2C1`, the pA2 in experiment [2] is reported as less than 5; in experiment [1], 5.2.
For `C=CS(=O)(=O)N(C)[C@@H]1CCN2CCc3ccccc3[C@@H]2C1`, in that order: 7.93 and 6.32.
For `CN([C@@H]1CCN2CCc3ccccc3[C@@H]2C1)S(=O)(=O)CC1CC1`, in that order: 7.7 and 6.7.
Taken in the same sequence, the figures for `CN(C)CCS(=O)(=O)N(C)[C@@H]1CCN2CCc3ccccc3[C@@H]2C1` were 7.26 and 5.6.
In the case of `CCCS(=O)(=O)N(C)[C@@H]1CCN2CCc3ccccc3C2C1` (stereo partly specified), the values for the pA2 in experiment [2] and in experiment [1] were 5.78 and 5.86, respectively.
For `CN([C@@H]1CCN2CCc3ccccc3[C@@H]2C1)S(=O)(=O)c1cccnc1`, the values for the pA2 in experiment [2] and in experiment [1] were 8.22 and 6.73, respectively.
For `CC(C)CS(=O)(=O)N(C)[C@@H]1CCN2CCc3ccccc3[C@@H]2C1` (stereo in doubt; 16), in that order: 8.16 and 6.49.
For `CN([C@@H]1CCN2CCc3ccccc3[C@@H]2C1)S(=O)(=O)c1cccc2cccnc12`, in that order: 8.46 and 6.84.
Taken in the same sequence, the figures for `CCCN([C@@H]1CCN2CCc3ccccc3[C@@H]2C1)S(C)(=O)=O` were 6.77 and 6.44.
Consider `CN([C@@H]1CCN2CCc3ccccc3[C@@H]2C1)S(=O)(=O)CC(C)(C)C`, for which the pA2 in experiment [2] was found to be 8.11; in experiment [1], 6.5.
For `COc1ccc(S(=O)(=O)N(C)[C@@H]2CCN3CCc4ccccc4[C@@H]3C2)cc1`, the figures for the pA2 in experiment [2] and in experiment [1] were 8.1 and 6.5, respectively.
Taken in the same sequence, the figures for `CCCCCS(=O)(=O)N(C)[C@@H]1CCN2CCc3ccccc3[C@@H]2C1` were 7.74 and 6.8.
Turning to `COP(=O)(OC)N(C)[C@@H]1CCN2CCc3ccccc3[C@@H]2C1`, the pA2 in experiment [2] came out at 6.63.
Take `CN([C@@H]1CCN2CCc3ccccc3[C@@H]2C1)S(=O)(=O)CC(F)(F)F`: the pA2 in experiment [2] was found to be 7.56; in experiment [1], 5.93.
Taken in the same sequence, the figures for `CN([C@@H]1CCN2CCc3ccccc3[C@@H]2C1)S(N)(=O)=O` were 7.1 and 5.7.
Taken in the same sequence, the figures for `CN([C@@H]1CCN2CCc3ccccc3[C@@H]2C1)S(C)(=O)=O` (stereo in doubt; 6) were 7.81 and 6.04.
In the case of `CCN([C@@H]1CCN2CCc3ccccc3[C@@H]2C1)S(=O)(=O)CC(C)C`, the figures for the pA2 in experiment [2] and in experiment [1] were 7.61 and 6.65, respectively.
Taken in the same sequence, the figures for `CN([C@@H]1CCN2CCc3ccccc3[C@@H]2C1)S(=O)(=O)CCl` were 8.26 and 6.61.
For `CCCS(=O)(=O)N(C)[C@@H]1CCN2CCc3ccccc3[C@@H]2C1` (stereo in doubt; 10), in that order: 8.08 and 6.34.
Regarding `CN([C@@H]1CCN2CCc3ccccc3[C@@H]2C1)S(=O)(=O)C(F)(F)F`, the pA2 in experiment [2] was 7.15; in experiment [1], 5.49.
Consider `CN([C@@H]1CCN2CCc3ccccc3[C@@H]2C1)S(=O)(=O)CCN1CCCCC1`, for which the results for the pA2 in experiment [2] and in experiment [1] were 7.5 and 6.11, respectively.
For `CCCCS(=O)(=O)N(C)[C@@H]1CCN2CCc3ccccc3[C@@H]2C1`, in that order: 7.87 and 6.6.
As for `CN([C@@H]1CCN2CCc3ccccc3C2C1)S(C)(=O)=O` (stereo partly specified), the pA2 in experiment [2] is given as 5.7.
Molecule `COC(=O)N(C)[C@@H]1CCN2CCc3ccccc3[C@@H]2C1` gave a pA2 in experiment [1] of 6.56.
For the molecule `CN([C@@H]1CCN2CCc3ccccc3[C@@H]2C1)S(=O)(=O)c1ccccc1`, the pA2 in experiment [2] is given as 8.44; in experiment [1] it was 7.05.
Taken in the same sequence, the figures for `CC(C)CS(=O)(=O)N[C@@H]1CCN2CCc3ccccc3[C@@H]2C1` were 6.34 and 6.55.
Taken in the same sequence, the figures for `CN([C@@H]1CCN2CCc3ccccc3[C@@H]2C1)S(=O)(=O)c1cccc2ccccc12` were 8.06 and 7.1.
The molecule `CCOC(=O)N(C)[C@@H]1CCN2CCc3ccccc3[C@@H]2C1` gave a pA2 in experiment [1] of 6.93.

Values taken from ChEMBL document CHEMBL1124159, “Synthesis and structure-activity relationships of 2-sulfonamido-1,3,4,6,7,11b alpha-hexahydro-2H-benzo[a]quinolizines as alpha 2-adrenoceptor antagonists” (J Med Chem, 1988).
